Test results reported in patent publication US7666890B2, “Synthesis and herbicidal activity of 1- (2-substituted benzo[d]thiazol-5-yl)-1H-1,2,4-triazol-5(4H)-one derivatives” (Huazhong Normal University, priority 2007, dated 2010).

Assays:
Assay in all cases: Test of herbicidal activities (greenhouse pot method)
Format in all cases: in vivo
Conditions in all cases: single dose 300 g ai./h, treated before/after germination, 15 days later, greenhouse pot
[1] = system: Digiatria sanguinalis
Experimental: (§1) Garden soil was collected from regions where no pesticide is used and mixed uniformly with mountain soil and organic humus soil at a volume ratio of 1:1:1.
(§2) Multiple flowerpots each having a diameter of 9.5 cm and a depth of 8 cm were filled with the soil mixture to 3/4 volume. After water was added to the soil and the soil was completely wet, seeds of three grass weeds and three broadleaf weeds were inserted into the flowerpots (10-15 seeds for each weed). After seeding, the seeds were covered with fine oil mixed with sand and having a thickness of 1-3 cm. After the soil absorbed enough water and became saturated, excess water at the bottom of the flowerpot was drained, and the seeds were placed in a greenhouse for growth.
(§3) The weeds were watered every day so as to keep relative humidity of the soil at approximately 80%, growing temperature of 15-30° C., and air humidity above 50%. As the grass weeds grew to a 2-leaf stage and the broadleaf weeds was in a leaf period, spraying operation […] was performed on the stems and leafs. Planting before germination was performed before spraying. Soil processing was performed before the seeds of the weeds emerged.
(§4) Six target weeds comprising three grass weeds: Echinochloa crusgalli, Digiatria sanguinalis, Setaria viridis, along with three broadleaf weeds: Brassica juncea, Amaranthus retroflexus, Chenopodium album were treated before/after germination using a so-called “greenhouse pot” method with a single dose. A treating dose was 300 g ai./h. The process was repeated three times, and a blank control was used.
(§5) A 3WPSHZ-500 type automatic spraying tower with a spraying area of 0.132 m^2, a spray volume of 10 mL, working pressure of 0.2 MPa, and a liquid volume of 40% of maximum was used. After treatment, the weeds were placed in a greenhouse at a temperature of 15-30° C. Reaction symptoms of the weeds were regularly observed, and 15 days later, five reaction levels were determined according to the following inhibition intervals: 90≦A≦100%; 80≦B<90%, 60≦C<80%; 50≦D<60%, E<50%.

[2] = system: Brassica juncea
Experimental: as §1, §2, §3, §4, §5

[3] = system: Chenopodium album
Experimental: as §1, §2, §3, §4, §5

[4] = system: Amaranthus retroflexus
Experimental: as §1, §2, §3, §4, §5

[5] = system: Setaria viridis
Experimental: as §1, §2, §3, §4, §5

[6] = system: Echinochloa crusgalli
Experimental: as §1, §2, §3, §4, §5

Row | SMILES | Herbicidal activity Digiatria sanguinalis (inhibition level) [1] | Herbicidal activity Brassica juncea (inhibition level) [2] | Herbicidal activity Chenopodium album (inhibition level) [3] | Herbicidal activity Amaranthus retroflexus (inhibition level) [4] | Herbicidal activity Setaria viridis (inhibition level) [5] | Herbicidal activity Echinochloa crusgalli (inhibition level) [6]
1 | Cc1nn(-c2cc3nc(SCc4ccc(Cl)nc4)sc3cc2Cl)c(=O)n1C(F)F [Compound 1] | B (80 ≦ B < 90%) | B (80 ≦ B < 90%) | C (60 ≦ C < 80%) | A (90 ≦ A ≦ 100%) | D (50 ≦ D < 60%) | B (80 ≦ B < 90%)
2 | Cc1nn(-c2cc3nc(SCc4ccccc4)sc3cc2Cl)c(=O)n1C(F)F [Compound 2] | C (60 ≦ C < 80%) | B (80 ≦ B < 90%) | E (E < 50%) | A (90 ≦ A ≦ 100%) | B (80 ≦ B < 90%) | C (60 ≦ C < 80%)
3 | Cc1nn(-c2cc3nc(SCc4ccccc4Cl)sc3cc2Cl)c(=O)n1C(F)F [Compound 3] | C (60 ≦ C < 80%) | C (60 ≦ C < 80%) | E (E < 50%) | B (80 ≦ B < 90%) | E (E < 50%) | E (E < 50%)
4 | Cc1nn(-c2cc3nc(SCc4cccc(Cl)c4)sc3cc2Cl)c(=O)n1C(F)F [Compound 4] | E (E < 50%) | E (E < 50%) | C (60 ≦ C < 80%) | B (80 ≦ B < 90%) | C (60 ≦ C < 80%) | C (60 ≦ C < 80%)
5 | Cc1nn(-c2cc3nc(SCc4ccc(Cl)cc4)sc3cc2Cl)c(=O)n1C(F)F [Compound 5] | B (80 ≦ B < 90%) | B (80 ≦ B < 90%) | E (E < 50%) | A (90 ≦ A ≦ 100%) | E (E < 50%) | C (60 ≦ C < 80%)
6 | Cc1nn(-c2cc3nc(SCc4ccc(Br)cc4)sc3cc2Cl)c(=O)n1C(F)F [Compound 6] | E (E < 50%) | C (60 ≦ C < 80%) | B (80 ≦ B < 90%) | B (80 ≦ B < 90%) | C (60 ≦ C < 80%) | B (80 ≦ B < 90%)
7 | Cc1nn(-c2cc3nc(SCc4cccc(F)c4)sc3cc2Cl)c(=O)n1C(F)F [Compound 7] | B (80 ≦ B < 90%) | C (60 ≦ C < 80%) | E (E < 50%) | B (80 ≦ B < 90%) | B (80 ≦ B < 90%) | E (E < 50%)
8 | Cc1nn(-c2cc3nc(SCc4ccc(F)cc4F)sc3cc2Cl)c(=O)n1C(F)F [Compound 8] | B (80 ≦ B < 90%) | C (60 ≦ C < 80%) | C (60 ≦ C < 80%) | C (60 ≦ C < 80%) | C (60 ≦ C < 80%) | E (E < 50%)
9 | Cc1nn(-c2cc3nc(SCc4c(F)cccc4F)sc3cc2Cl)c(=O)n1C(F)F [Compound 9] | B (80 ≦ B < 90%) | A (90 ≦ A ≦ 100%) | C (60 ≦ C < 80%) | B (80 ≦ B < 90%) | E (E < 50%) | B (80 ≦ B < 90%)
